Test results from PubChem BioAssay AID1259411 (Chemical Carcinogenesis Research Information System (CCRIS), 2018).
The source made the active and inactive calls. The rule behind the calls is not given here.

System: rodent carcinogenicity bioassays, tumor incidence
Experiment: CCRIS carcinogenicity studies
Procedure, shortened: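 Archive of carcinogenicity, mutagenicity, tumor promotion and tumor inhibition results drawn from journals, NCI reports and other sources, expert-reviewed; covers 1985-2011 and is no longer updated.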

Measured: carcinogen call

Cc1c2ccccc2c(C)c2c1ccc1ccccc12
active: Species: FISH, Strain/Sex: KING COBRA GUPPY/ MALE, FEMALE, Route: IMMERSION, Dose: 0, 0.86, 3.18, 0.90 PPB (LOW DOSE) GIVEN AS SEPARATE DOSES OVER A 4 WK PERIOD, EACH DOSE GIVEN 6 HR/D FOR 1 DAY, 0, 16.3, Dose: 0, 0.86, 3.18, 0.90 PPB (LOW DOSE) GIVEN AS SEPARATE DOSES OVER A 4 WK PERIOD, EACH DOSE GIVEN 6 HR/D FOR 1 DAY, 0, 16.3, Tumor Site: Type of Lesion: LIVER: HEPATOCELLULAR ADENOMA, HEPATOCELLULAR CARCINOMA active; positive | Species: FISH, Strain/Sex: SHEEPSHEAD MINNOW/MALE, FEMALE, Route: IMMERSION, Dose: 0, 1, 30, 1200 PPB APPROXIMATE CONCENTRATIONS ADMINISTERED 1/WK FOR 6 OR 24 HR FOR 1 OR 2 WK (STUDY DURATION: 39 WK), Dose: 0, 1, 30, Tumor Site: Type of Lesion: LIVER: ALTERED FOCI, HEPATOCELLULAR ADENOMA OR HEPATOCELLULAR CARCINOMA active; positive | Species: HAMSTER, Strain/Sex: SYRIAN/FEMALE, Route: TONGUE, Dose: 0, 0.10 ML OF A 0.5% ACETONE SOLUTION TO BORDER OF MIDDLE THIRD PORTION OF TONGUE 3/WK FOR 6 WK (STUDY DURATION: 11 WK), Tumor Site: Type of Lesion: TONGUE: CARCINOMA active; positive | Species: HAMSTER, Strain/Sex: SYRIAN/FEMALE, Route: TONGUE, Dose: 0, 0.10 ML OF A 0.5% ACETONE SOLUTION TO BORDER OF MIDDLE THIRD PORTION OF TONGUE 3/WK FOR 8 WK (STUDY DURATION: 11 WK), Tumor Site: Type of Lesion: TONGUE: CARCINOMA active; positive | Species: HAMSTER, Strain/Sex: SYRIAN/MALE,FEMALE, Route: DERMAL, Dose: 80 µL OF 1% SOLN IN MINERAL OIL ONCE OR 1/WK FOR 3 WK, Tumor Site: Type of Lesion: INTEGUMENTARY SYSTEM (SKIN): PAPILLOMA, SQUAMOUS CELL CARCINOMA, ANGIOMA, MELANOTIC AND ADNEXAL TUMOR active; positive | Species: HAMSTER, Strain/Sex: SYRIAN/MALE,FEMALE, Route: DERMAL, Dose: 80 µL OF 1% SOLN IN MINERAL OIL ONCE, Tumor Site: Type of Lesion: INTEGUMENTARY SYSTEM (SKIN): AMELANOTIC DERMAL MELANOCYTOMA active; positive | Species: HAMSTER, Strain/Sex: SYRIAN/MALE,FEMALE, Route: SUBCUTANEOUS, Dose: 0.005-20 MG IN 1 ML OLIVE OIL ONCE, Tumor Site: Type of Lesion: INJECTION SITE: SARCOMA active; positive | Species: MOUSE, Strain/Sex: ALBINO/MALE, Route: DERMAL, Dose: 0.05% IN OLIVE OIL OR ACETONE, 0.2 ML 2/WK, Tumor Site: Type of Lesion: INTEGUMENTARY SYSTEM (SKIN) active; positive | Species: MOUSE, Strain/Sex: B6C3F1/MALE, Route: INTRAPERITONEAL, Dose: 0, 0.00075, 0.0015, 0.003 UMOL/G IN 10 µL/G TRIOCTANOIN ONCE ON 12 D OF AGE (STUDY DURATION: 10 MO), Dose: 0, 0.00075, 0.0015, 0.003 UMOL/G IN 10 µL/G TRIOCTANOIN ONCE ON 12 D OF AGE (STUDY DURATION: 10 MO), Tumor Site: Type of Lesion: LIVER: HEPATOMA active; positive | Species: MOUSE, Strain/Sex: B6C3F1/MALE, Route: INTRAPERITONEAL, Dose: 0, 0.003, 0.01, 0.03 UMOL/G IN 10 µL/G TRIOCTANOIN ONCE ON 12 D OF AGE (STUDY DURATION: 8.5 MO), Dose: 0, 0.003, 0.01, 0.03 UMOL/G IN 10 µL/G TRIOCTANOIN ONCE ON 12 D OF AGE (STUDY DURATION: 8.5 MO), Tumor Site: Type of Lesion: LIVER: HEPATOMA active; positive | Species: MOUSE, Strain/Sex: B6C3F1/MALE, Route: INTRAPERITONEAL, Dose: 0, 0.01 UMOL/G IN 10 µL/G TRIOCTANOIN ON D 12 OF AGE (STUDY DURATION: 10 MO), Tumor Site: Type of Lesion: LIVER: HEPATOMA active; positive | Species: MOUSE, Strain/Sex: BALB/FEMALE, Route: GAVAGE, Dose: 0.5-2 MG IN ALMOND OIL 1/2 WK OR 2/WK FOR 8-10 WK, Tumor Site: Type of Lesion: OVARIES: GRANULOSA CELL TUMOR active; positive | Species: MOUSE, Strain/Sex: BALB, Route: SUBCUTANEOUS, Dose: 30 UG IN 0.02 ML OF 1% AQ GEL SUSPENDED ONCE, Tumor Site: Type of Lesion: LUNG: ADENOMA, ADENOCARCINOMA active; positive | Species: MOUSE, Strain/Sex: C57BL/FEMALE, Route: DERMAL, Dose: 2.5 MG OF 0.5% SOLN IN 0.5 ML OLIVE OIL 1/2 WK FOR LIFE, Tumor Site: Type of Lesion: INTEGUMENTARY SYSTEM (SKIN) active; positive | Species: MOUSE, Strain/Sex: C57BL, Route: DERMAL, Dose: 0.5 ML OF 0.5% SOLN IN OLIVE OIL 1/2 WK FOR 6 WK, Tumor Site: Type of Lesion: OVARIES active; positive | Species: MOUSE, Strain/Sex: C57BL, Route: DERMAL, Dose: 0.5 ML OF 0.5% SOLN IN OLIVE OIL 1/2 WK FOR 6 WK, Tumor Site: Type of Lesion: OVARIES, MAMMARY GLAND active; positive | Species: MOUSE, Strain/Sex: CBA, Route: SUBCUTANEOUS, Dose: 30 UG IN 15 µL OF 1% AQ GEL ONCE, Tumor Site: Type of Lesion: LUNG active; positive | Species: MOUSE, Strain/Sex: CD-1/FEMALE, Route: SUBCUTANEOUS, Dose: 20 MG/KG IN 1% GEL SOLN WITHIN 24 HR OF BIRTH, Tumor Site: Type of Lesion: LUNG: ADENOMA, ADENOCARCINOMA active; positive | Species: MOUSE, Strain/Sex: CD-1/MALE, Route: SUBCUTANEOUS, Dose: 20 MG/KG IN 1% GEL SOLN WITHIN 24 HR OF BIRTH, Tumor Site: Type of Lesion: LUNG: ADENOMA, ADENOCARCINOMA, LIVER: ADENOMA active; positive | Species: MOUSE, Strain/Sex: ICR, Route: SUBCUTANEOUS, Dose: 0.001, 0.01, 0.1 MG IN 0.05 ML TRICAPRYLIN, Dose: 0.001, 0.01, 0.1 MG IN 0.05 ML TRICAPRYLIN, Tumor Site: Type of Lesion: INJECTION SITE: FIBROSARCOMA, SQUAMOUS CELL CARCINOMA, SARCOMA active; positive | Species: MOUSE, Strain/Sex: MALE,FEMALE, Route: DERMAL, Dose: 0.1 ML OF 0.1% SOLN IN ACETONE 1/WK FOR 9 WK, Tumor Site: Type of Lesion: INTEGUMENTARY SYSTEM (SKIN): PAPILLOMA, MALIGNANT PAPILLOMA active; positive | Species: MOUSE, Strain/Sex: SENCAR/FEMALE, Route: GAVAGE, Dose: 0, 20, 60, 200 UG IN 0.1 ML CORN OIL 1/D 5 D/WK FOR 6 WK (STUDY DURATION: 53 WK), Dose: 0, 20, 60, 200 UG IN 0.1 ML CORN OIL 1/D 5 D/WK FOR 6 WK (STUDY DURATION: 53 WK), Tumor Site: Type of Lesion: LYMPHATIC SYSTEM: LYMPHOMA, MAMMARY GLAND: CARCINOMA active; positive | Species: MOUSE, Strain/Sex: SWISS/FEMALE, Route: DERMAL, Dose: 0, 1, 4, 8 NMOL IN 100 µL ACETONE 2/WK FOR 40 WK (STUDY DURATION: 48 WK), Dose: 0, 1, 4, 8 NMOL IN 100 µL ACETONE 2/WK FOR 40 WK (STUDY DURATION: 48 WK), Tumor Site: Type of Lesion: SKIN: TUMORS active; positive | Species: MOUSE, Strain/Sex: SWISS/FEMALE, Route: DERMAL, Dose: 20-500 UG IN ACETONE ONCE, Tumor Site: Type of Lesion: INTEGUMENTARY SYSTEM (SKIN): SQUAMOUS CELL CARCINOMA, SARCOMA, EPITHELIOMA active; positive | Species: MOUSE, Strain/Sex: SWISS/FEMALE, Route: DERMAL, Dose: 100, 200 UG IN 50 µL ACETONE ONCE, Tumor Site: Type of Lesion: INTEGUMENTARY SYSTEM (SKIN): PAPILLOMA, CARCINOMA, SARCOMA active; positive | Species: MOUSE, Strain/Sex: SWISS/MALE,FEMALE, Route: SUBCUTANEOUS, Dose: 0.9 MG SUSPENDED IN 0.45 ML 1% AQ GEL ONCE, Tumor Site: Type of Lesion: INJECTION SITE: FIBROSARCOMA, SQUAMOUS CELL CARCINOMA active; positive
inactive: Species: HAMSTER, Strain/Sex: SYRIAN/FEMALE, Route: TONGUE, Dose: 0, 0.10 ML OF A 0.5% ACETONE SOLUTION TO BORDER OF MIDDLE THIRD PORTION OF TONGUE 3/WK FOR 4 WK (STUDY DURATION: 11 WK) inactive; negative
